Measured values published in patent US9145424B2, “Treatment of amyotrophic lateral sclerosis” (Northwestern University, priority 2008, dated 2015).
Read-outs that look alike come from different tables or passages of the source.

Tested on: PC12 cells that express mutant G93A SOD1
Assay: Mutant SOD1-induced cytotoxicity protection assay
Settings: for Corresponding % viability: rat, 48 h
Experimental: This idea was tested by examining the sensitivity of PC12 cells to SOD1 aggregates in the presence and absence of proteasome inhibitor MG132. PC12 cells expressing no SOD1, wild type SOD1, G85R SOD1 or G93A SOD1 were grown with or without MG132 (FIG. 1).
PC12 cells expressing G93A SOD1 were treated with 100 nM MG132 with or without co-treatment with geldanamycin or radicicol.

[1] = Rattus norvegicus, PC-12, read-out: Best EC50, PC12 G93A SOD1 cells, MG132, calcein-AM viability
[2] = Rattus norvegicus, PC-12, read-out: EC50 after Normalization, normalised with the corresponding 3299 EC50
[3] = read-out: Best EC50, PC12 G93A SOD1 cells, MG132, calcein-AM viability
[4] = read-out: EC50 after Normalization, normalised with the corresponding 3299 EC50

| Structure (SMILES) | EC50 [1] [nM] | EC50 [2] [nM] | Corresponding % viability [%] | EC50 [3] [nM] | EC50 [4] [nM] | activity in the cytotoxicity protection assay, in words |
| --- | --- | --- | --- | --- | --- | --- |
| Cn1c(COc2cc(Cl)cc(Cl)c2)cc(=O)n1C [CMB-087363-1] | > 32000 |  |  |  |  |  |
| O=c1cc(COc2cc(Br)cc(Br)c2)[nH][nH]1 [CMB-087628-1] | 1540 | 510 | 125 |  |  |  |
| O=c1cc(CSc2ccc([N+](=O)[O-])cc2)[nH][nH]1 [CMB-053528-1] | 5590 | 2400 | 136 |  |  |  |
| Cc1cc([S+]([O-])Cc2cc(=O)[nH][nH]2)c(C)cc1Cl (centres unmarked) [CMB-086482-1] | 4470 | 2880 | 123 |  |  |  |
| O=c1cc(CS(=O)(=O)c2cc(Cl)cc(Cl)c2)[nH][nH]1 [CMB-087235-2] |  |  | 132 | 670 | 1410 |  |
| O=c1cc(CSc2ccc(-c3ccccc3)cc2)[nH][nH]1 [CMB-086883-1] | 9440 | 4060 | 115 |  |  |  |
| O=c1cc(CSc2ccc(Cl)cc2)[nH]n1-c1ccccc1 [CMB-086473-1] | 5110 | 3460 | 109 |  |  |  |
| O=c1cc(CSc2ccc(F)cc2)[nH][nH]1 [CMB-086478-1] | 4730 | 3440 | 104 |  |  |  |
| O=c1cc(CSc2ccc(Cl)cc2)[nH][nH]1 [CMB-053529-1] |  | 1930 | 93 | 4490 |  |  |
| O=c1cc(COc2cccc(Br)c2)[nH][nH]1 [CMB-087642-1] | 3060 | 1020 | 144 |  |  |  |
| O=c1cc(COc2ccc(Cl)c(Cl)c2)[nH][nH]1 [CMB-087242-1] | 130 | 580 | 136 |  |  |  |
| Cc1c(CN(C)c2cc(Cl)cc(Cl)c2)n(C)n(C)c1=O [Compound 32, 5-(((3,5-Dichlorophenyl)(methyl)amino)methyl)-1,2,4-trimethyl-1H-pyrazol-3(2H)-one] |  |  |  |  |  | devoid of activity |
| O=c1cc(CSc2cc(Cl)cc(Cl)c2)[nH][nH]1 [CMB-086835-2] |  |  | 129 | 300 | 290 |  |
| CCc1ccc(S(=O)(=O)Cc2cc(=O)[nH][nH]2)cc1 [CMB-087210-1] | 990 | 900 | 101 |  |  |  |
| O=c1cc(C[S+]([O-])c2ccc(Cl)cc2)[nH]n1-c1ccccc1 (centres unmarked) [CMB-086474-1] | > 32000 |  |  |  |  |  |
| O=c1cc(CSc2ccc(Cl)cc2Cl)[nH][nH]1 [CMB-053545-1] | 1580 | 1150 | 124 |  |  |  |
| CN(Cc1cc(=O)n(C)[nH]1)c1cc(Cl)cc(Cl)c1 [Compound 30, 5-(((3,5-Dichlorophenyl)(methyl)amino)methyl)-2-methyl-1H-pyrazol-3(2H)-one] |  |  |  |  |  | comparable in activity to parent compound 3 |
| CC(C)c1ccccc1SCc1cc(=O)[nH][nH]1 [CMB-086899-1] | 400 | 480 | 106 |  |  |  |
| CCc1ccc(OCc2cc(=O)[nH][nH]2)cc1 [CMB-087241-1] | 3290 | 1960 | 88 |  |  |  |
| O=c1cc(CS(=O)(=O)c2ccc(Cl)cc2)[nH][nH]1 [CMB-086475-1] | 6920 | 4700 | 110 |  |  |  |

| Structure (SMILES) | EC50 [1] [nM] | EC50 [2] [nM] | Corresponding % viability [%] | EC50 [3] [nM] | EC50 [4] [nM] | activity in the cytotoxicity protection assay, in words |
| --- | --- | --- | --- | --- | --- | --- |
| Cc1cc(S(=O)(=O)Cc2cc(=O)[nH][nH]2)c(C)cc1Cl [CMB-087213-1] | 2280 | 1470 | 116 |  |  |  |
| O=c1cc(CSc2ccc(Br)cc2)[nH][nH]1 [CMB-053543-1] | 4240 | 1800 | 94 |  |  |  |
| COc1ccc(SCc2cc(=O)[nH][nH]2)cc1 [CMB-086477-1] | 4210 | 1810 | 102 |  |  |  |
| CC(C)c1ccc(S(=O)(=O)Cc2cc(=O)[nH][nH]2)cc1 [CMB-087211-1] | 750 | 680 | 103 |  |  |  |
| O=c1cc(CSc2cc(Cl)cc(Cl)c2)[nH][nH]1 [CMB-086835-1] |  | 170 | 134 | 80 |  |  |
| Cc1cc(SCc2cc(=O)[nH][nH]2)c(C)cc1Cl [CMB-086481-1] |  | 390 | 140 | 430 |  |  |
| O=c1cc(COc2ccc(Cl)cc2)[nH][nH]1 [CMB-086902-2] |  |  | 117 | 690 | 790 |  |
| CN(C)c1ccc(SCc2cc(=O)[nH][nH]2)cc1 [CMB-086476-1] | 1650 |  | 77 |  |  |  |
| O=c1cc(CN(c2cc(Cl)cc(Cl)c2)S(=O)(=O)c2ccccc2)[nH][nH]1 [CMB-087645-1] | 9040 | 1430 | 111 |  |  |  |
| O=c1cc(COc2cc(Cl)cc(Cl)c2)[nH][nH]1 [CMB-087229-1] |  |  | 129 | 50 | 67 |  |
| Cn1[nH]c(COc2cc(Cl)cc(C(F)(F)F)c2)cc1=O [CMB-087264-1] | 6670 | 5130 | 109 |  |  |  |
| CN(Cc1cc(=O)n(C)n1C)c1cc(Cl)cc(Cl)c1 [Compound 33, 5-(((3,5-Dichlorophenyl)(methyl)amino)methyl)-1,2-dimethyl-1H-pyrazol-3(2H)-one] |  |  |  |  |  | devoid of activity |
| CC(C)(C)c1ccc(SCc2cc(=O)[nH][nH]2)cc1 [CMB-053527-1] | 5380 | 2310 | 150 |  |  |  |
| O=c1cc(CSc2ccccc2Cl)[nH][nH]1 [CMB-086834-1] | 840 | 3050 | 123 |  |  |  |
| O=c1cc(CS(=O)(=O)c2cc(Cl)cc(Cl)c2)[nH][nH]1 [CMB-087235-1] | 360 | 760 | 130 |  |  |  |
| CC(C)(C)c1cccc(OCc2cc(=O)[nH][nH]2)c1 [CMB-087215-1] | 1060 | 870 | 141 |  |  |  |
| CCCCc1ccc(S(=O)(=O)Cc2cc(=O)[nH][nH]2)cc1 [CMB-087212-1] | 990 | 900 | 93 |  |  |  |
| O=c1cc(COc2cc(Cl)cc(Cl)c2)[nH][nH]1 [CMB-087229-5] |  |  | 123 | 550 | 310 |  |
| CCc1cccc(OCc2cc(=O)[nH][nH]2)c1 [CMB-087214-1] | 1120 | 720 | 125 |  |  |  |
| CN1N=C(CN(C)c2cc(Cl)cc(Cl)c2)C(C)(C)C1=O [Compound 34, 3-(((3,5-Dichlorophenyl)(methyl)amino)methyl)-1,4,4-trimethyl-1H-pyrazol-5(4H)-one] |  |  |  |  |  | devoid of activity |

| Structure (SMILES) | EC50 [1] [nM] | EC50 [2] [nM] | Corresponding % viability [%] | EC50 [3] [nM] | EC50 [4] [nM] | activity in the cytotoxicity protection assay, in words |
| --- | --- | --- | --- | --- | --- | --- |
| Cn1[nH]c(COc2ccc(Cl)cc2)cc1=O [CMB-087362-1] | 7600 | 5850 | 107 |  |  |  |
| O=c1cc(COc2ccc(Cl)cc2)[nH][nH]1 [CMB-086902-1] |  | 650 | 131 | 570 |  |  |
| O=c1cc(CSc2c(Cl)cccc2Cl)[nH][nH]1 [CMB-086480-1] | 260 | 950 | 142 |  |  |  |
| O=c1cc(CSc2cccc(Cl)c2)[nH][nH]1 [CMB-086833-1] | 250 | 1110 | 148 |  |  |  |
| CN(Cc1cc(=O)[nH]n1C)c1cc(Cl)cc(Cl)c1 [Compound 31, 5-(((3,5-Dichlorophenyl)(methyl)amino)methyl)-1-methyl-1H-pyrazol-3(2H)-one] |  |  |  |  |  | devoid of activity |
| O=c1cc(COc2ccc(Cl)cc2)[nH][nH]1 [CMB-086902-3] |  |  | 120 | 3430 | 770 |  |
| Cc1ccc(C)c(SCc2cc(=O)[nH][nH]2)c1 [CMB-086479-1] | 220 |  | 77 |  |  |  |
| O=c1cc(CNc2cc(Cl)cc(Cl)c2)[nH][nH]1 [CMB-087650-1] | 2110 | 330 | 128 |  |  |  |
| O=c1cc(COc2cc(F)cc(F)c2)[nH][nH]1 [CMB-087627-1] | 3210 | 1070 | 125 |  |  |  |
| O=c1cc(COc2cccc(-c3ccccc3)c2)[nH][nH]1 [CMB-087643-1] | 8530 | 2840 | 96 |  |  |  |
| O=c1cc(CSCCOc2ccccc2)[nH][nH]1 [CMB-086900-1] | 6210 | 7520 | 97 |  |  |  |
| O=c1cc(CSc2ccccc2)[nH][nH]1 [CMB-053526-1] | 6850 |  | 77 |  |  |  |
| O=c1cc(CSc2ccc(Cl)c(Cl)c2)[nH][nH]1 [CMB-053544-1] | 2600 | 1890 | 113 |  |  |  |
| O=c1cc(CSCCOc2ccccc2)[nH][nH]1 [TC-II-140] |  |  |  | 6200 |  |  |
| O=c1cc(COc2cc(-c3ccccc3)cc(-c3ccccc3)c2)[nH][nH]1 [CMB-087644-1] | 11100 | 3700 | 68 |  |  |  |
| O=c1cc(COc2cc(C(F)(F)F)cc(C(F)(F)F)c2)[nH][nH]1 [CMB-087260-1] | 130 | 580 | 120 |  |  |  |
| O=c1cc(CSc2ccc(F)cc2Cl)[nH][nH]1 [CMB-086832-1] | 1610 |  | 68 |  |  |  |
| CCc1ccccc1SCc1cc(=O)[nH][nH]1 [CMB-086901-1] | 2060 | 2500 | 106 |  |  |  |
| O=C1NN=C(CSc2ccccc2)C1=Cc1ccccc1 [CMB-053530-1] | > 32000 |  |  |  |  |  |
